Results: patent US8946283B2, “Composition for preventing or treating obesity, dyslipidemia, fatty liver or diabetes containing indole-3-carbinol derivative as active ingredient” (Industry-Academic Cooperation Foundation, Yonsei University, priority 2011, dated 2015)

Experiments:
[1] = Body weight gain and visceral fat weight of mice fed high-fat test diet; assay type: in vivo, C57BL/6J mice; details: 0.05% in high-fat diet, 10 weeks
Description: (§1) The obesity-inducing control diet used in the test was high-fat diet (HFD: 40% fat calorie, 17 g lard+3% corn oil/100 g diet). Diets supplemented with indole-3-carbinol derivatives (B525 and B528) had the same composition as HFD, except that each derivative was included at 0.05% (see Table 2). The diabetic drug metformin was added at 0.1% or the hyperlipidemic drug atorvastatin was added at 0.01% to HFD as controls. The normal diet group (Chow) was fed with commercially available rodent chow.
(§2) 56 5-week-old male C57BL/6J mice (Orient, Korea) were accustomed to the laboratory environment for 1 week while feeding solid feed. Then, they were randomly divided into normal diet, high-fat diet and test groups (n=8/group) and bred for a total of 10 weeks. The diet was given between 10 and 11 a.m. every day together with water. Food intake was measured every day and body weight was measured once a week. In order to avoid transient body weight increase after feed intake, body weight was measured 2 hours after removing the feed. After fasting the test animal for at least 12 hours and anesthetizing with diethyl ether, blood, liver and visceral fat (epididymal fat, perirenal fat, mesenteric fat and retroperitoneal fat) were taken and weighed after washing with 0.1 M PBS (pH 7.4). Blood taken from the abdominal aorta was centrifuged at 1000×g for 15 minutes to separate the plasma.

3T3-L1 cells = test: Inhibition of adipocyte differentiation, Oil Red O staining of triglyceride; assay type: cell-based, mouse; details: for differentiation of the preadipocytes 3T3L1: 0.1, 1, 10, 50 and 100 μM, 14 days, vs DMSO control; for triglyceride accumulation in cells: 3T3-L1 cells, FIGS. 1-3
Description: Mouse adipocyte cell line (3T3-L1) was used to investigate the effect of various indole-3-carbinol derivatives on differentiation and growth of adipocytes. The preadipocytes, 3T3-L1 cells, were seeded on a 12-well plate and cultured to confluency using Dulbecco's modified Eagle's medium (DMEM) containing 1% penicillin-streptomycin, 1% nonessential amino acid and 10% fatal bovine serum (FBS), in a 5% CO2 incubator at 37° C. The 3T3-L1 cells grown to confluency were cultured for 2 days in MDI medium containing 0.5 mM isobutylmethylxanthine, 1 μM dexamethasone and 1 μg/mL insulin to differentiate them into adipocytes. Then, the cells were further cultivated in DMEM containing 1 μg/mL insulin to differentiate them into mature adipocytes. The cells were further cultured for 10 more days while replacing DMEM every other day to obtain fully differentiated adipocytes.
From the first day when MDI was added to the 3T3-L1 cells, 16 indole-3-carbinol derivative compounds were treated at concentrations of 0.1, 1, 10, 50 and 100 μM with 2-day intervals. The structure and molecular weight of the 16 indole-3-carbinol derivatives (B518, B521, B525, B528, B538, B540, B542, B544, B545, B546, B547, B549, B551, B556, B558 and B561) are described in Table 1. The derivative compounds were used after being dissolved in DMSO. Only DMSO was added to the negative control group.
After culturing for a total of 14 days, the medium was removed when the differentiation was completed and lipid droplets in the differentiated adipocytes were stained. For this, the cells were washed twice with phosphate buffered saline (PBS), fixed in 10% buffered neutral formalin (BNF) for 1 hour, washed once again with PBS, stained for 1 hour by adding 1 mL of Oil Red O dye, which specifically stains fat red, on the 12-well plate, and washed twice with distilled water. In order to measure the level of triglyceride contained in the differentiated 3T3-L1 cells, the stained lipid droplets were dissolved in 1 mL of isobutanol and optical density (OD) value was measured at 600 nm.

[2] = Liver weight and lipid level in liver tissue of mice fed high-fat test diet; assay type: in vivo, C57BL/6J mice; details: 0.05% in high-fat diet, 10 weeks
Description: as §1, §2
Lipids were extracted from the liver tissue according to Folch et al.'s method Folch J et al., J Biol. Chem. 226: 497-509 (1957)). After adding 1 mL of distilled water to 0.25 g of liver tissue, the liver tissue was homogenized using a Polytron homogenizer (IKA-Werke GmbH & Co., Ultra-Turrax, Staufen, Germany). After adding 5 mL of chloroform:methanol solution (2:1, v/v) to the homogenate and mixing well, the mixture was centrifuged at 1000×g for 10 minutes. After adding 2 mL of chloroform:methanol solution (2:1, v/v) again to the supernatant, the same procedure was repeated to completely separate the lipid components of the liver. After adding 3 mL of chloroform:methanol:0.05% CaCl2 (3:48:47, v/v/v) solution to the remaining pellets and mixing well for 1 minute, followed by centrifugation at 1000×g for 10 minutes, the resulting pellets were completely dried with nitrogen gas. The dried lipids were dissolved in 1 mL of methanol and then analyzed.
The same kit (Bio Clinical System) as that used for the plasma analysis was used to measure the triglyceride and cholesterol levels of the liver tissue.

[3] = Biochemical analysis of blood (plasma lipids) of mice fed high-fat test diet; assay type: in vivo, C57BL/6J mice; details: 0.05% in high-fat diet, 10 weeks
Description: as §1, §2
After 10 weeks of breeding, total cholesterol, triglyceride and glucose levels in the plasma and lipid level in the liver tissue were measured as follows. Total cholesterol, triglyceride and free fatty acid levels in the plasma were measured twice for each using a commercially available kit (Bio Clinical System).

[4] = Fasting blood sugar and oral glucose tolerance test in mice fed high-fat test diet; assay type: in vivo, C57BL/6J mice; details: for reduction of fasting blood sugar level as compared to HFD: 0.05% in high-fat diet, 8 weeks
Description: as §1, §2
On week 8 after feeding the test diet, oral glucose tolerance test was performed for all the groups. After fasting the mouse for 16 hours, glucose (2 g glucose/10 mL distilled water/kg body weight) was orally administered. Before and 15, 30, 60 and 120 minutes after the oral administration, the tail end was cut by about […] and blood was taken. Glucose level was measured using a glucose meter.

Q: What does the source list for `C=CCN1C(=O)C(O)(c2c(C)[nH]c3ccccc23)c2cc(Br)ccc21` (stereo not drawn) [B525, 1′-Allyl-5′-bromo-3′-hydroxy-2-methyl-1′,3′-dihydro-1H,2′H-3,3′-biindol-2′-one]?
A: decrease of body weight gain as compared to HFD [1]: 21%; reduction of total visceral fat weight as compared to HFD [1]: 20%; weight of epididymal fat, perirenal fat, mesenteric fat and retroperitoneal fat as compared to HFD [1]: significantly reduced; differentiation of the preadipocytes 3T3L1 (3T3-L1 cells): reduced the differentiation of the preadipocytes 3T3L1 in a concentration-dependent manner; triglyceride accumulation in cells (3T3-L1 cells): effectively reduce triglyceride accumulation in cells; appearance of liver tissue as compared to HFD [2]: smaller and darker liver tissue; decrease of cholesterol level in liver tissue as compared to HFD [2]: 22%; decrease of liver weight as compared to HFD [2]: 26%; decrease of triglyceride level in liver tissue as compared to HFD [2]: 18%; reduction of arteriosclerotic index in blood plasma as compared to HFD [3]: 30%; reduction of total cholesterol level in blood plasma as compared to HFD [3]: 18%; reduction of triglyceride level in blood plasma as compared to HFD [3]: 32%; reduction of fasting blood sugar level as compared to HFD [4]: 37%; effect on oral glucose tolerance compared to controls metformin and atorvastatin ([4]; OGTT, week 8): excellent effect of improving oral glucose tolerance, better than the controls metformin and atorvastatin

Q: What does the source list for `CCN1C(=O)C(O)(c2c(C)[nH]c3ccccc23)c2cc(Br)ccc21` (stereo not drawn) [B528, 5′-Bromo-1′-ethyl-3′-hydroxy-2-methyl-1′,3′-dihydro-1H,2′H-3,3′-biindol-2′-one]?
A: decrease of body weight gain as compared to HFD [1]: 30%; reduction of total visceral fat weight as compared to HFD [1]: 26%; weight of epididymal fat, perirenal fat, mesenteric fat and retroperitoneal fat as compared to HFD [1]: significantly reduced; differentiation of the preadipocytes 3T3L1 (3T3-L1 cells): reduced the differentiation of the preadipocytes 3T3L1 in a concentration-dependent manner; triglyceride accumulation in cells (3T3-L1 cells): effectively reduce triglyceride accumulation in cells; appearance of liver tissue as compared to HFD [2]: smaller and darker liver tissue; decrease of cholesterol level in liver tissue as compared to HFD [2]: 28%; decrease of liver weight as compared to HFD [2]: 31%; decrease of triglyceride level in liver tissue as compared to HFD [2]: 34%; reduction of arteriosclerotic index in blood plasma as compared to HFD [3]: 35%; reduction of total cholesterol level in blood plasma as compared to HFD [3]: 21%; reduction of triglyceride level in blood plasma as compared to HFD [3]: 38%; reduction of fasting blood sugar level as compared to HFD [4]: 39%; blood glucose level after oral glucose as compared to HFD ([4]; OGTT, 15, 30, 60 and 120 minutes, week 8): decreased blood glucose level at all times; change of blood glucose level after oral glucose as compared to HFD ([4]; OGTT, after 60 minutes, week 8): −29%; area under the curve (AUC) of the blood glucose level as compared to HFD ([4]; OGTT, week 8): decreased significantly; effect on oral glucose tolerance compared to controls metformin and atorvastatin ([4]; OGTT, week 8): excellent effect of improving oral glucose tolerance, better than the controls metformin and atorvastatin

Q: For `O=C1N(Cc2ccc(Cl)cc2)c2ccccc2C1(O)c1c[nH]c2ccccc12` (stereo not drawn) [B546, 1′-(4-Chlorobenzyl)-3′-hydroxy-1′,3′-dihydro-1H,2′H-3,3′-biindol-2′-one], which “differentiation of the preadipocytes 3T3L1” value (3T3-L1 cells) is on record?
A: reduced the differentiation of the preadipocytes 3T3L1 in a concentration-dependent manner

Q: Which “differentiation of the preadipocytes 3T3L1” value (3T3-L1 cells) does the source give for `O=C1N(Cc2ccccc2)c2ccccc2C1(O)c1c[nH]c2ccccc12` (stereo not drawn) [B542, 1′-Benzyl-3′-hydroxy-1′,3′-dihydro-1H,2′H-3,3′-biindol-2′-one] here?
A: reduced the differentiation of the preadipocytes 3T3L1 in a concentration-dependent manner
